pIC50: −log10 of the molar value.
Molecular target: MAT2A (Homo sapiens (Human), UniProt P31153)
Assay: MAT2A Biochemical Assay
Details: Biomol Green readout O.D.620; 1 uM start, 3-fold dilution, 10 doses; read-out: MAT2A enzymatic IC50
Procedure: Example A: MAT2A Biochemical Assay
Compounds described herein were tested as follows:
• (1). Prepared 1×Assay buffer. • (2). Preparation of compound concentration gradient: the compounds test condition were 1 uM start, 3-fold dilution, 10 doses, singlet or duplicate. 100× concentration compounds were prepared in 384-well plate. Then used Echo 550 to transfer 250 nl to a 384-reaction plate for later use. Added 250 nl of 100% DMSO to the negative and positive control wells. • (3). Prepared 1.67× final concentration enzyme solution with 1×Assay buffer. • (4). Added 15 μl of 1.67× Enzyme solution to the compound wells and positive control wells; added 15 μl of 1 Assay buffer to the negative control wells. • (5). Centrifuged at 1000 rpm for 30 seconds and incubate for 15 minutes. • (6). Prepared 2.5× final concentration Substrate mix solution with 1×Assay buffer. • (7). Added 10 μl of 2.5× final concentration Substrate mix solution to start the reaction. • (8). Centrifuged at 1000 rpm for 30 seconds and incubate for 150 minutes. • (9). Added 50 μl Biomol Green to stop the reaction, centrifuge at 1000 rpm for 30 seconds and incubate for 15 minutes. read O.D.620, process data.
• (1) Using GraphPad Prism 5. • (2) % Inh=(Max signal−Compound signal)/(Max signal−Min signal)*100. • (3) Max signal was obtained from the positive control wells. • (4) Min signal was obtained from the negative control wells.

Sequence of MAT2A (P31153 whole entry, species assumed): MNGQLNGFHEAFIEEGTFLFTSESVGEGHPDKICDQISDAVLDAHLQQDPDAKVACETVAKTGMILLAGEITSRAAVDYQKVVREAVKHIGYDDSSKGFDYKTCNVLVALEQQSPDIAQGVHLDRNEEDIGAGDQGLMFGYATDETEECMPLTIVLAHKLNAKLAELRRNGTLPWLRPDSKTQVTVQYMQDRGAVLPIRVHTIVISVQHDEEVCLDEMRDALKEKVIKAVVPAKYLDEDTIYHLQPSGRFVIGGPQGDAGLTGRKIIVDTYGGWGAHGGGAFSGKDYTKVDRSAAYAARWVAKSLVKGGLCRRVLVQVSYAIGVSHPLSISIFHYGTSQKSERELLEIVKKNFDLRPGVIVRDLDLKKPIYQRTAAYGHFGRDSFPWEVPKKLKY

pIC50 | Structure (SMILES)
> 7.30 | C#CC1(Nc2nc(=O)n(-c3cccnn3)c3nc(C(F)(F)F)ccc23)CC1 [Example 70, 4-((1-ethynylcyclopropyl)amino)-1-(pyridazin-3-yl)-7-(trifluoromethyl)pyrido[2,3-d]pyrimidin-2 (1H)-one]
> 7.30 | C#CC1(Nc2nc(=O)n(-c3cccnc3C)c3cc(C(F)(F)F)cc(OC)c23)CC1 [Example 49]
> 7.30 | C#CCN(C)c1nc(=O)n(-c2cccnc2)c2cc(C(F)(F)F)ccc12 [Example 51]
> 7.30 | C#CC(C)Nc1nc(=O)n(-c2cccnc2)c2cc(C(F)(F)F)cc(OC)c12 (stereo not drawn) [Example 35, 4-(but-3-yn-2-ylamino)-5-methoxy-1-(pyridin-3-yl)-7-(trifluoromethyl)quinazolin-2 (1H)-one]
> 7.30 | C#CC1(Nc2nc(=O)n(-c3cccnc3C)c3cc(Cl)cc(OC)c23)CCC1 [Example 28]
> 7.30 | C#CCNc1nc(=O)n(-c2cnccn2)c2cc(Cl)ccc12 [Example 17, 7-chloro-4-(prop-2-yn-1-ylamino)-1-(pyrazin-2-yl)quinazolin-2 (1H)-one]
> 7.30 | C#CCCCNc1nc(=O)n(-c2cccnc2)c2cc(Cl)ccc12 [Example 6, 7-chloro-4-(pent-4-yn-1-ylamino)-1-(pyridin-3-yl)quinazolin-2 (1H)-one]
> 7.30 | C#CC1(Nc2nc(=O)n(-c3cccnc3C)c3cc(Cl)cc(F)c23)CC1 [Example 31, 7-chloro-4-((1-ethynylcyclopropyl)amino)-5-fluoro-1-(2-methylpyridin-3-yl)quinazolin-2 (11H)-one]
> 7.30 | C=CCNc1nc(=O)n(-c2cccnc2)c2cc(Cl)cc(OC)c12 [Example 73]
> 7.30 | C#CCNc1nc(=O)n(-c2cccnc2)c2cc(C(F)(F)F)cc(OCF)c12 [Example 38, 5-(fluoromethoxy)-4-(prop-2-yn-1-ylamino)-1-(pyridin-3-yl)-7-(trifluoromethyl)quinazolin-2 (1H)-one]
> 7.30 | C#CCNc1nc(=O)n(-c2nccnc2C)c2cc(C(F)(F)F)cc(OC)c12 [Example 48, 5-methoxy-1-(3-methylpyrazin-2-yl)-4-(prop-2-yn-1-ylamino)-7-(trifluoromethyl)quinazolin-2 (1H)-one]
> 7.30 | C#CCNc1nc(=O)n(-c2cccnn2)c2nc(C(F)(F)F)ccc12 [Example 63, 4-(prop-2-yn-1-ylamino)-1-(pyridazin-3-yl)-7-(trifluoromethyl)pyrido[2,3-d]pyrimidin-2 (1H)-one]
> 7.30 | C#CCNc1nc(=O)n(-c2cnccn2)c2cc(C(F)(F)F)cc(OC)c12 [Example 54, 5-methoxy-4-(prop-2-yn-1-ylamino)-1-(pyrazin-2-yl)-7-(trifluoromethyl)quinazolin-2 (1H)-one]
> 7.30 | C=CCNc1nc(=O)n(-c2cccnc2)c2cc(C(F)(F)F)ccc12 [Example 76]
> 7.30 | C=CCNc1nc(=O)n(-c2cccnc2C)c2cc(Cl)cc(OC)c12 [Example 74]
> 7.30 | C#CCNc1nc(=O)n(-c2c(C)ccnc2C)c2cc(C(F)(F)F)ccc12 [Example 52, 1-(2,4-dimethylpyridin-3-yl)-4-(prop-2-yn-1-ylamino)-7-(trifluoromethyl)quinazolin-2 (11H)-one]
> 7.30 | C#CCNc1nc(=O)n(-c2cccnc2)c2cc(Br)ccc12 [Example 18, 7-bromo-4-(prop-2-yn-1-ylamino)-1-(pyridin-3-yl)quinazolin-2 (1H)-one]
> 7.30 | C#CCNc1nc(=O)n(-c2cccnc2C)c2cc(Cl)ccc12 [Example 15, 7-chloro-1-(2-methylpyridin-3-yl)-4-(prop-2-yn-1-ylamino)quinazolin-2 (1H1)-one]

pIC50 | Structure (SMILES)
> 7.30 | C#CCNc1nc(=O)n(-c2cccnc2C(C)C)c2cc(C(F)(F)F)ccc12 [Example 45, 1-(2-isopropylpyridin-3-yl)-4-(prop-2-yn-1-ylamino)-7-(trifluoromethyl)quinazolin-2 (1H)-one]
> 7.30 | C#CC1(Nc2nc(=O)n(-c3cccnc3)c3cc(Cl)cc(OC)c23)CC1 [Example 66]
> 7.30 | C#CC(C)Nc1nc(=O)n(-c2cccnc2C)c2cc(C(F)(F)F)cc(OC)c12 (stereo not drawn) [Example 37]
> 7.30 | C#CCNc1nc(=O)n(-c2cccnc2C)c2cc(C(F)(F)F)cc(OC)c12 [Example 36, 5-methoxy-1-(2-methylpyridin-3-yl)-4-(prop-2-yn-1-ylamino)-7-(trifluoromethyl)quinazolin-2 (1H)-one]
> 7.30 | C#CCCNc1nc(=O)n(-c2ccccc2Cl)c2cc(Cl)ccc12 [Example 8, 4-(but-3-yn-1-ylamino)-7-chloro-1-(2-chlorophenyl)quinazolin-2 (1H)-one]
> 7.30 | C#CC1(Nc2nc(=O)n(-c3cnccn3)c3cc(C(F)(F)F)ccc23)CC1 [Example 69, 4-((1-ethynylcyclopropyl)amino)-1-(pyrazin-2-yl)-7-(trifluoromethyl)quinazolin-2 (1H)-one]
> 7.30 | C#CCNc1nc(=O)n(-c2cccnc2)c2cc(C(F)(F)F)cc(OC)c12 [Example 34, 5-methoxy-4-(prop-2-yn-1-ylamino)-1-(pyridin-3-yl)-7-(trifluoromethyl)quinazolin-2 (1H)-one]
> 7.30 | C#CC1(Nc2nc(=O)n(-c3cccnc3)c3cc(C(F)(F)F)ccc23)CC1 [Example 67]
> 7.30 | C#CC1(Nc2nc(=O)n(-c3cccnc3C)c3cc(Cl)ccc23)CC1 [Example 16, 7-chloro-4-((1-ethynylcyclopropyl)amino)-1-(2-methylpyridin-3-yl)quinazolin-2 (1H)-one]
> 7.30 | C#CCNc1nc(=O)n(-c2nccnc2C)c2cc(Cl)cc(OC)c12 [Example 23, 7-chloro-5-methoxy-1-(3-methylpyrazin-2-yl)-4-(prop-2-yn-1-ylamino)quinazolin-2 (1H)-one]
> 7.30 | C#CC1(Nc2nc(=O)n(-c3cccnc3)c3cc(Cl)ccc23)CC1 [Example 4]
> 7.30 | C#CC(C)Nc1nc(=O)n(-c2cccnc2C)c2cc(Cl)cc(OC)c12 (stereo not drawn) [Example 26]
> 7.30 | O=c1nc(NCC#CC2CC2)c2ccc(Cl)cc2n1-c1cccnc1 [Example 2, 7-chloro-4-((3-cyclopropylprop-2-yn-1-yl)amino)-1-(pyridin-3-yl)quinazolin-2 (1H)-one]
> 7.30 | C#CCNc1nc(=O)n(-c2cccnc2C)c2cc(C(F)(F)F)ccc12 [Example 33, 1-(2-methylpyridin-3-yl)-4-(prop-2-yn-1-ylamino)-7-(trifluoromethyl)quinazolin-2 (1H)-one]
> 7.30 | C#CCNc1nc(=O)n(-c2ccccc2Cl)c2cc(Cl)ccc12 [Example 10, 7-chloro-1-(2-chlorophenyl)-4-(prop-2-yn-1-ylamino)quinazolin-2 (1H)-one]
> 7.30 | C#CC1(Nc2nc(=O)n(-c3cccnc3C)c3cc(C(F)(F)F)cc(OC)c23)CCC1 [Example 50]
> 7.30 | C#CC1(Nc2nc(=O)n(-c3cccnc3)c3cc(C(F)(F)F)cc(OC)c23)CC1 [Example 47, 4-((1-ethynylcyclopropyl)amino)-5-methoxy-1-(pyridin-3-yl)-7-(trifluoromethyl)quinazolin-2 (1B)-one]
> 7.30 | C#CCNc1nc(=O)n(-c2cccnc2C)c2nc(C(F)(F)F)cc(OC)c12 [Example 42, 5-methoxy-1-(2-methylpyridin-3-yl)-4-(prop-2-yn-1-ylamino)-7-(trifluoromethyl)pyrido[2,3-d]pyrimidin-2 (1H)-one]
